# Measured values as given in patent publication US8134015B2, “Compound inhibiting in vivo phosphorous transport and medicine containing the same” (Kyowa Hakko Kirin Co., Ltd., priority 2003, dated 2012).
# Target: T1, rat NaPi-2b (Rattus norvegicus, UniProt Q9JJ09)
# T1 construct: expressed in transfected cells; host or cells: Xenopus oocytes injected with cRNA
# T1 sequence (Q9JJ09 1-695): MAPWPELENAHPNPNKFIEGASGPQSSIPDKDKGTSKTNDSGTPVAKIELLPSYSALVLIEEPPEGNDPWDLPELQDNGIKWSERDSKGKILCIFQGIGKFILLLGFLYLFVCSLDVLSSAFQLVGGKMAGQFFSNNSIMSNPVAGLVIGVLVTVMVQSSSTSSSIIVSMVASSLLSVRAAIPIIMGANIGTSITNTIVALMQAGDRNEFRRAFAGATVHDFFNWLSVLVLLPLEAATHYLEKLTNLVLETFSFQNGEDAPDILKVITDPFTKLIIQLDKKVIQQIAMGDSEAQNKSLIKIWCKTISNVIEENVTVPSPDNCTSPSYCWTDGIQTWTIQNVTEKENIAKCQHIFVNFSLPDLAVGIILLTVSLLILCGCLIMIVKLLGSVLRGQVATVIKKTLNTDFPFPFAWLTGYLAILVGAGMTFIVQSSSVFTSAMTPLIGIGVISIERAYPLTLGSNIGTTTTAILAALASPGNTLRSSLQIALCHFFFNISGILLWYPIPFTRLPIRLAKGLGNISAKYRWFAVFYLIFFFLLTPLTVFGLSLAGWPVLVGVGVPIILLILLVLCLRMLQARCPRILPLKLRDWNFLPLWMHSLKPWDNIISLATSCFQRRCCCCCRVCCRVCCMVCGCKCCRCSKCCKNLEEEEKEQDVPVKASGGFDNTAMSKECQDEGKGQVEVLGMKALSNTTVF
# Assay: Sodium-dependent phosphate uptake of Xenopus oocytes which expressed NaPi-2b (32P)
# Type: cell-based
# Settings: Xenopus oocytes expressing rat NaPi-2b, 32P radioactive phosphorus; read-out: IC50 (phosphate uptake inhibitory activity)
# Procedure, shortened: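 Steps: rat NaPi-2b cDNA cloned from small intestine; cRNA made and injected into oocytes; 2-day expression; 32P phosphate uptake with compound; % inhibition at 300/100 μM taken from one curve.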
row,SMILES,IC50
1,"COc1ccc(/C=N/NC(=O)c2c(NC(=O)c3cccc(CN(CC(C)O)CC(C)O)c3)sc(C)c2C)cc1 (stereo not drawn) [Compound 848, 3-{[Bis-(2-hydroxy-propyl)-amino]-methyl}-N-[3-(4-methoxy-benzylidene-hydrazinocarbonyl)-4,5-dimethyl-thiophen-2-yl]-benzamide]",2.2 µM
2,"CCN(CC)CCN(C)Cc1ccc(C(=O)Nc2ccc(Br)cc2C(=O)N/N=C/c2cccc(F)c2)cc1 [Compound 288, N-[4-Bromo-2-(3-fluoro-benzylidene-hydrazinocarbonyl)-phenyl]-4-{[(2-diethylamino-ethyl)-methyl-amino]-methyl}-benzamide]",1.31 µM
3,"COc1ccc(C(=O)Nc2ccccc2C(=O)N/N=C/c2cccs2)cc1OC [Compound 23, 3,4-Dimethoxy-N-[2-(thiophen-2-ylmethylene-hydrazinocarbonyl)-phenyl]-benzamide]",9.88 µM
4,"Cc1ccc(/C=N/NC(=O)c2c(C)csc2NC(=O)c2cccc(CN3CCC(O)CC3)c2)cc1C [Compound 593, N-[3-(3,4-Dimethyl-benzylidene-hydrazinocarbonyl)-4-methyl-thiophen-2-yl]-3-(4-hydroxy-piperidin-1-ylmethyl)-benzamide]",< 3 µM
5,"COc1ccc(/C=N/NC(=O)c2cscc2NC(=O)c2cccc(CN3CCN(CCO)CC3)c2)cc1 [Compound 984, 3-[4-(2-Hydroxy-ethyl)-piperazin-1-ylmethyl]-N-[4-(4-methoxy-benzylidene-hydrazinocarbonyl)-thiophen-3-yl]-benzamide]",22.1 µM
6,"COc1cccc(/C=N/NC(=O)c2cc(Cl)ccc2NC(=O)c2cccc(CN(C)CCO)c2)c1 [Compound 400, N-[4-Chloro-2-(3-methoxy-benzylidene-hydrazinocarbonyl)-phenyl]-3-{[(2-hydroxy-ethyl)-methyl-amino]-methyl}-benzamide]",< 0.3 µM
7,"Cc1ccc(/C=N/NC(=O)c2c(NC(=O)c3cccc(CN4CCC(CO)CC4)c3)sc3ccccc23)cc1C [Compound 798, N-[3-(3,4-Dimethyl-benzylidene-hydrazinocarbonyl)-benzo[b]thiophen-2-yl]-3-(4-hydroxymethyl-piperidin-1-ylmethyl)-benzamide]",3.62 µM
8,"Cc1ccc(/C=N/NC(=O)c2c(C)csc2NC(=O)c2cccc(CN3CCN(CCO)CC3)c2)cc1 [Compound 576, 3-[4-(2-Hydroxy-ethyl)-piperazin-1-ylmethyl]-N-[4-methyl-3-(4-methyl-benzylidene-hydrazinocarbonyl)-thiophen-2-yl]-benzamide]",< 3 µM
9,"CCc1ccc(C(=O)Nc2ccc(Br)cc2C(=O)N/N=C/c2ccc(F)cc2)cc1 [Compound 179, N-[4-Bromo-2-(4-fluoro-benzylidene-hydrazinocarbonyl)-phenyl]-4-ethyl-benzamide]",18.7 µM
10,"CCN(CC)CCN(C)Cc1cccc(C(=O)Nc2cc(OCCOC)c(OCCOC)cc2C(=O)N/N=C/c2ccc(C)cc2)c1 [Compound 1029, N-[4,5-Bis-(2-methoxy-ethoxy)-2-(4-methyl-benzylidene-hydrazinocarbonyl)-phenyl]-3-{[(2-diethylamino-ethyl)-methyl-amino]-methyl}-benzamide]",34.7 µM
11,"O=C(Nc1ccccc1C(=O)N/N=C/c1cccnc1)c1ccc(F)cc1 [Compound 113, 4-Fluoro-N-[2-(pyridin-3-ylmethylene-hydrazinocarbonyl)-phenyl]-benzamide]",17.9 µM
12,"Cc1ccc(/C=N/NC(=O)c2c(NC(=O)c3cccc(CN4CCN(CCO)CC4)c3)sc3c2CCCC3)cc1 [Compound 622, 3-[4-(2-Hydroxy-ethyl)-piperazin-1-ylmethyl]-N-[3-(4-methyl-benzylidene-hydrazinocarbonyl)-4,5,6,7-tetrahydro-benzo-[b]thiophen-2-yl]-benzamide]",< 3 µM
13,"Cc1ccc(/C=N/NC(=O)c2cccnc2NC(=O)c2cccc(CN(CC(C)O)CC(C)O)c2)cc1 (stereo not drawn) [Compound 965, 3-{[Bis-(2-hydroxy-propyl)-amino]-methyl}-N-[3-(4-methyl-benzylidene-hydrazinocarbonyl)-pyridin-2-yl]-benzamide]",27.2 µM
14,"O=C(Nc1ccc(Br)cc1C(=O)N/N=C/c1cccc(F)c1)c1ccc(CN2CCC(O)CC2)cc1 [Compound 328, N-[4-Bromo-2-(3-fluoro-benzylidene-hydrazinocarbonyl)-phenyl]-4-(4-hydroxy-piperidin-1-ylmethyl)-benzamide]",1.15 µM
15,"O=C(Nc1ccc(OCCCN2CCCCC2)cc1C(=O)N/N=C/c1ccc(Cl)c(C(F)(F)F)c1)c1cccc(CSCCO)c1 [Compound 1039, N-[2-(4-Chloro-3-trifluoromethyl-benzylidene-hydrazinocarbonyl)-4-(3-piperidin-1-yl-propoxy)-phenyl]-3-(2-hydroxy-ethylsulfanylmethyl)-benzamide]",2.76 µM
16,"O=C(Nc1sc2c(c1C(=O)N/N=C/c1ccc(Cl)c(C(F)(F)F)c1)CCCC2)c1cccc(CN2CCC(N3CCCCC3)CC2)c1 [Compound 619, 3-[1,4′]Bipiperidinyl-1′-ylmethyl-N-[3-(4-chloro-3-trifluoromethyl-benzylidene-hydrazinocarbonyl)-4,5,6,7-tetrahydro-benzo[b]thiophen-2-yl]-benzamide]",< 3 µM
17,O=C(Nc1ccccc1C(=O)N/N=C/c1ccc(Cl)cc1)c1cccc(OC(F)(F)F)c1 [Compound 123],3.77 µM
18,"CCN(CC)CCNCc1cccc(C(=O)Nc2sc3c(c2C(=O)N/N=C/c2ccc(OC)cc2)CCC3)c1 [Compound 815, 3-[(2-Diethylamino-ethylamino)-methyl]-N-[3-(4-methoxy-benzylidene-hydrazinocarbonyl)-5,6-dihydro-4H-cyclopenta[b]thiophen-2-yl]-benzamide]",16.7 µM
19,"COc1ccc(C(=O)Nc2ccc(Cl)cc2C(=O)N/N=C/c2ccc(O)cc2)cc1OC [Compound 70, N-[4-Chloro-2-(4-hydroxy-benzylidene-hydrazinocarbonyl)-phenyl]-3,4-dimethoxy-benzamide]",9.51 µM
20,"O=C(Nc1ccc(N2CCOCC2)cc1C(=O)N/N=C/c1ccc(Cl)c(C(F)(F)F)c1)c1cccc(CSCCO)c1 [Compound 1065, N-[2-(4-Chloro-3-trifluoromethyl-benzylidene-hydrazinocarbonyl)-4-morpholin-4-yl-phenyl]-3-(2-hydroxy-ethylsulfanylmethyl)-benzamide]",1.21 µM
21,"Cc1cccc(/C=N/NC(=O)c2cc(Br)ccc2NC(=O)c2ccc(CN3CCN(CC(=O)N4CCOCC4)CC3)cc2)c1 [Compound 729, N-[4-Bromo-2-(3-methyl-benzylidene-hydrazinocarbonyl)-phenyl]-4-[4-(2-morpholin-4-yl-2-oxo-ethyl)-piperazin-1-ylmethyl]-benzamide]",27.3 µM
22,"Cc1ccc(/C=N/NC(=O)c2ccccc2NC(=O)c2cccnc2)cc1 [Compound 132, N-[2-(4-Methyl-benzylidene-hydrazinocarbonyl)-phenyl]-nicotinamide]",0.75 µM

# Same assay, conditions: phosphate uptake, oocytes expressing rat NaPi-2b; 300 μM, determined from inhibition curve
row,SMILES,inhibition at 300 µM
1,"Cc1cccc(/C=N/NC(=O)c2cc(Cl)ccc2NC(=O)c2cccc(CN(C)CCCCCCN(C)Cc3cccc(C(=O)Nc4ccc(Cl)cc4C(=O)N/N=C/c4cccc(C)c4)c3)c2)c1 [Compound 705, N1-[4-Chloro-2-({2-[(E)-1-(3-methylphenyl)methylidene]hydrazino}carbonyl}phenyl}-3-{[{6-[(3-{[4-chloro-2-({2-[(E)-1-(3-methylphenyl)methylidene]hydrazino}carbonyl}-anilino}carbonyl}benzyl}(methyl)amino)hexyl)(methyl)amino]methyl]-benzamide]",44.7%
2,"CC(O)CN(Cc1cccc(C(=O)Nc2ccsc2C(=O)N/N=C/c2ccc(Cl)c(C(F)(F)F)c2)c1)CC(C)O (stereo not drawn) [Compound 993, 3-{[Bis-(2-hydroxy-propyl)-amino]-methyl}-N-[2-(4-chloro-3-trifluoromethyl-benzylidene-hydrazinocarbonyl)-thiophen-3-yl]-benzamide]",39.7%
3,"CCN(CC)CCN(C)Cc1cccc(C(=O)Nc2cc(OCCOC)c(OCCOC)cc2C(=O)N/N=C/c2ccc(OC)cc2)c1 [Compound 1032, 3-{[(2-Diethylamino-ethyl)-methyl-amino]-methyl}-N-[2-(4-methoxy-benzylidene-hydrazinocarbonyl)-4,5-bis-(2-methoxy-ethoxy)-phenyl]-benzamide]",40%
4,"COc1cccc(/C=N/NC(=O)c2cc(Br)ccc2NC(=O)c2ccc(CN(C)CC(O)c3ccc(O)cc3)cc2)c1 (stereo not drawn) [Compound 727, N-[4-Bromo-2-(3-methoxy-benzylidene-hydrazinocarbonyl)-phenyl]-4-({[2-hydroxy-2-(4-hydroxy-phenyl)-ethyl]-methyl-amino}-methyl)-benzamide]",67.7%
5,"CCN(CC)Cc1cccc(C(=O)Nc2ccsc2C(=O)N/N=C/c2cccc(F)c2)c1 [Compound 995, 3-Diethylaminomethyl-N-[2-(3-fluoro-benzylidene-hydrazinocarbonyl)-thiophen-3-yl]-benzamide]",42.1%
